The results in this text go back to DBAASP.

Some test systems named below: Staphylococcus aureus; Escherichia coli; Escherichia coli UB1005; Acinetobacter baumannii; Enterobacter cloacae; Escherichia coli BL21; Staphylococcus aureus MR; Candida albicans SC5314; Pseudomonas syringae; Klebsiella pneumoniae; Pseudomonas aeruginosa; Xanthomonas vesicatoria.
Test in all cases: ≥ marks a high value that may be exact or a test limit, other limits are often not marked, values filed in µg/mL are converted to µM
Test [1] relates to Candida parapsilosis ATCC 22019.
The subject of test [2] is Candida albicans ATCC 24433.
The test system of test [3] is Trichophyton rubrum ATCC 28189.
For test [4], the system named is Escherichia coli ATCC 25922.
The test system of test [5] is Klebsiella pneumoniae ATCC 700603.
Test [6] has as its system Staphylococcus aureus ATCC 33591.
In test [7] the test system is Enterococcus faecium ATCC 700221.
The subject of test [8] is Pseudomonas aeruginosa ATCC 27853.
Test [9] relates to Acinetobacter baumannii ATCC BAA-1605.
Test [10] deals with Bacillus cereus CMCC 6303.
Test [11] relates to Staphylococcus aureus ATCC 25923.
Test [12] deals with Cronobacter sakazakii ATCC 29544.
Test [13] relates to Salmonella enterica subsp. enterica serovar Typhi CMCC 50071.
Test [14] has as its system Listeria monocytogenes CMCC 54004.
Test [15] deals with Salmonella enterica subsp. enterica CMCC 47020.
Test [16] relates to Salmonella enterica subsp. enterica serovar Typhimurium C77-31.
Test [17] relates to Salmonella enterica subsp. enterica serovar Pullorum C79-13.
Test [18] deals with Staphylococcus aureus CMCC 26074.
In test [19] the test system is Salmonella enterica subsp. enterica serovar Typhimurium ATCC 14028.
The subject of test [20] is Pseudomonas aeruginosa PAO1.
Test [21] deals with Staphylococcus aureus ATCC 12600.
Test [22] concerns Pseudomonas aeruginosa PA14.
Test [23] concerns Klebsiella pneumoniae KpC+001825971.
The test system of test [24] is Klebsiella pneumoniae ATCC 13883.
Test [25] has as its system Escherichia coli KpC+001812446.
For test [26], the system named is Staphylococcus aureus ATCC 29213.
The test system of test [27] is Cryptococcus neoformans var. grubii H99.
Test [28] deals with Xanthomonas oryzae pv. oryzae.
Test [29] deals with Streptococcus pneumoniae TIGR4.
For test [30], the system named is Streptococcus pyogenes AP1.
Test [31] concerns Xanthomonas campestris pv. campestris.

Values after ≈ are worked out from the molar mass of the structure shown. Values joined by “and” are separate entries in the source; they are usually repeats but may differ in a detail not shown here. Equal values may be shown once. Bounds are passed on as bounds.

Regarding `CC[C@H](C)[C@H](NC(=O)[C@H](CCC(=O)O)NC(=O)[C@H](CO)NC(=O)[C@H](CCCN=C(N)N)NC(=O)[C@@H](N)CO)C(=O)N[C@H](C(=O)N[C@@H](CCC(N)=O)C(=O)N[C@@H](CCCN=C(N)N)C(=O)N[C@@H](CC(C)C)C(=O)N[C@@H](Cc1ccccc1)C(N)=O)C(C)C` [SRSEIVQRLF], the MIC in test [1] was at least 324 µM; in [2], at least 324 µM; against Staphylococcus aureus, above 324 µM; in the test on Escherichia coli, above 324 µM; in [3] it was at least 324 µM.
As for `CC[C@H](C)[C@H](NC(=O)[C@H](CCCCN)NC(=O)[C@H](CCCN=C(N)N)NC(=O)[C@H](Cc1ccccc1)NC(=O)[C@H](CC(C)C)NC(=O)[C@H](CCCN=C(N)N)NC(=O)[C@@H](N)CCCCN)C(=O)N[C@@H](CC(C)C)C(=O)N[C@@H](CCCN=C(N)N)C(=O)N[C@@H](Cc1ccc(O)cc1)C(=O)N[C@@H](CC(C)C)C(N)=O` [KRLFRKILRYL], the MIC in test [4] was 46.8 µM (≈ 70.5 µg/mL); in test [5] it was 23.2 µM (≈ 35 µg/mL); in [6], at least 46.8 µM; in test [7] it was 23.2 µM (≈ 35 µg/mL); in test [8], 46.8 µM (≈ 70.5 µg/mL); in test [9], 11.6 µM (≈ 17.5 µg/mL).
As for `CC[C@H](C)[C@H](NC(=O)[C@H](CCCN=C(N)N)NC(=O)[C@H](Cc1c[nH]c2ccccc12)NC(=O)[C@H](CCCCN)NC(=O)[C@@H](N)CCCN=C(N)N)C(=O)N[C@H](C(=O)N[C@H](C(=O)N[C@H](C(=O)N[C@@H](CCCN=C(N)N)C(=O)N[C@H](C(=O)N[C@@H](CCCN=C(N)N)C(=O)N[C@@H](CCCN=C(N)N)C(N)=O)C(C)C)[C@@H](C)CC)C(C)C)C(C)C` [RKWRIVVIRVRR], the MIC in [10] is 16 µM (≈ 26.2 µg/mL); in test [11], 128 µM (≈ 209 µg/mL); in test [12], at least 32 µM; in [13] it was 8 µM (≈ 13.1 µg/mL); in test [14], 2 µM (≈ 3.27 µg/mL); in [15] it was at least 64 µM. Besides, the MIC in [16] was at least 32 µM; in test [17], 8 µM (≈ 13.1 µg/mL); against Escherichia coli UB1005 it was 8 µM (≈ 13.1 µg/mL); in test [18], at least 256 µM; in [19] it was 32 µM (≈ 52.4 µg/mL).
Turning to `CC[C@H](C)[C@H](NC(=O)[C@H](CCCCN)NC(=O)[C@H](C)NC(=O)[C@H](C)NC(=O)[C@H](CC(C)C)NC(=O)[C@H](CCCN=C(N)N)NC(=O)[C@H](CC(C)C)NC(=O)[C@H](C)NC(=O)[C@H](CC(C)C)NC(=O)[C@H](CCCCN)NC(=O)[C@H](CC(C)C)NC(=O)[C@H](CCCCN)NC(=O)[C@H](CCCCN)NC(=O)[C@H](CCSC)NC(=O)[C@@H]1CCCN1)C(=O)N[C@@H](C)C(=O)N1CCC[C@H]1C(=O)N[C@H](C(=O)N[C@@H](Cc1c[nH]c2ccccc12)C(=O)O)C(C)C` [PMKKLKLALRLAAKIAPVW], the minimum inhibitory concentration (MIC) in [4] was 8 µM (≈ 17.2 µg/mL); in [20], 16 µM (≈ 34.4 µg/mL); with Acinetobacter baumannii, 4 µM (≈ 8.59 µg/mL); in test [11] it was 8 µM (≈ 17.2 µg/mL); against Enterobacter cloacae it was at least 32 µM; in [21] it was 16 µM (≈ 34.4 µg/mL). The minimal inhibitory concentration (MIC) in test [22] is 8 µM (≈ 17.2 µg/mL); in test [23] it was at least 32 µM; with Escherichia coli BL21, 2 µM (≈ 4.3 µg/mL); against Staphylococcus aureus MR it was at least 32 µM; in test [24], 8 µM (≈ 17.2 µg/mL); in test [25], 2 µM (≈ 4.3 µg/mL).
In the case of `CC[C@H](C)[C@H](NC(=O)[C@H](CCC(=O)O)NC(=O)[C@H](Cc1ccc(O)cc1)NC(=O)[C@@H](N)CCCCN)C(=O)N[C@H](C(=O)N[C@H](C(=O)N[C@H](C(=O)N[C@@H](Cc1cnc[nH]1)C(=O)N[C@@H](CC(N)=O)C(=O)N[C@@H](CC(C)C)C(=O)N[C@@H](Cc1ccccc1)C(=O)N[C@@H](CCCN=C(N)N)C(=O)N[C@@H](CCCCN)C(=O)N[C@@H](CC(C)C)C(=O)N[C@H](C(=O)N[C@@H](Cc1cnc[nH]1)C(=O)N[C@@H](CCCN=C(N)N)C(=O)N[C@@H](CC(C)C)C(=O)N[C@@H](Cc1ccccc1)C(=O)N[C@@H](CCCN=C(N)N)C(=O)N[C@@H](CCCN=C(N)N)C(=O)N[C@@H](CC(N)=O)C(=O)N[C@@H](Cc1ccccc1)C(=O)NCC(=O)N[C@@H](Cc1ccc(O)cc1)C(=O)N[C@H](C(=O)N[C@@H](CC(C)C)C(=O)N[C@@H](CCCN=C(N)N)C(=O)O)[C@@H](C)O)[C@@H](C)O)[C@@H](C)CC)[C@@H](C)O)[C@@H](C)O` [KYEITTIHNLFRKLTHRLFRRNFGYTLR], the MIC is 10 µM (≈ 36 µg/mL) in test [4]; 5 µM (≈ 18 µg/mL) in test [26]; 5 µM (≈ 18 µg/mL) in the test with Staphylococcus aureus; 25 µM and ≥ 50 µM against Candida albicans SC5314; 3.54 µM (≈ 12.7 µg/mL) in the test on Escherichia coli; 25 µM and ≥ 50 µM in test [27]. Also, the MIC against Pseudomonas syringae is 5 µM (≈ 18 µg/mL); against Klebsiella pneumoniae, 10 µM and 25 µM; against Pseudomonas aeruginosa it was 14.1 µM (≈ 50.8 µg/mL); in test [28], 5 µM (≈ 18 µg/mL); in test [29] it was 5 µM (≈ 18 µg/mL); in the test on Xanthomonas vesicatoria it was 1 µM (≈ 3.6 µg/mL). Moreover, the minimal inhibitory concentration (MIC) turned out to be 10 µM (≈ 36 µg/mL) in test [8], 10 µM (≈ 36 µg/mL) in test [30] and 5 µM (≈ 18 µg/mL) in test [31].

Usually MIC stands for the lowest concentration that inhibits growth of the organism. Low readings indicate greater potency, high ones weaker potency.
